Laboratory results reported in patent publication US20220226349A1, “TOPICAL NEUROSTEROID FORMULATIONS” (Arizona Board of Regents on Behalf of the University of …, priority 2019, published 2022).
Values after ≈ are worked out from the molar mass of the structure shown. Read-outs that look alike come from different tables or passages of the source.

Assays:
[1] = Saturated solubility of Allo in oils; format: physicochemical; details: oil or lipid, thermodynamic from solid, room temperature, mean ± SD, n=3
Procedure: The solubility of Allo was determined in CAPMUL® MCM EP/NF (monodiglyceride of medium chain fatty acids, commercially available from Abitec Corporation (Columbus, Ohio), CAS Number 91744-32-0, or 26402-22-2, and 26402-26-6), isopropyl myristate, and oleic acid, by adding an excess amount of Allo to 1 mL of each oil in a glass vial. The vial was rocked for 72 h at room temperature. The excessive amount of Allo was filtered through a syringe membrane filter (0.2 μm). The amount of Allo dissolved in each oil was determined using HPLC.
An HPLC analytical method was developed by employing the SHIMADZU LC2010A HT for in vitro and ex vivo evaluation of Allo from microemulsions (MEs). Chromatographic separation was achieved using a PHENOMENEX® KINETEX® Phenyl-hexyl 2.6 μm reverse-phase (150×4.6 mm) column. The mobile phase was a mixture of 0.1% acetic acid in water and methanol, 20:80 (v/v) and flowed at 0.4 ml/min for 15 min The injection volume was 10 μl and the UV detection wavelength was 206 nm. A standard curve was constructed at the concentration range of 7.8-1,000

[2] = test system: HaCaT (human skin) cell line; test: In vitro cell viability (resazurin assay) after treatment of Allo, HaCaT; format: cell-based; details: 72 h
Procedure: (§1) Cell viability was evaluated in human skin (HaCaT)cell line by performing a resazurin assay after the treatment of Allo. Resazurin is a cell permeable redox indicator, and viable cells with active metabolism can reduce resazurin into resorufin, which is fluorescent (Riss et al., Cell Viability Assays, in Assay Guidance Manual, 2016). The HaCaT cells were grown in optimized Dubelco's Modified Eagle's medium (DMEM) (containing 2 mM of L-glutamine, 2 mM of sodium pyruvate, 4500 mg/L of glucose, and 1500 mg/L of sodium bicarbonate) supplemented with 10% fetal bovine serum (FBS). The TR 146 cells were grown in Ham's F12 medium supplemented with 10% FBS, 1% penicillin-streptomycin, and 0.2% L-Glutamine The RPMI 2650 cells were grown in Eagle's Minimum Essential medium (EMEM) supplemented with 10% FBS, 1% penicillin-streptomycin, and 0.2% amphotericin […]. Cells were plated in a 96-well plate at a density of 5,000 cells per each well (100 μl) and incubated at 37° C. and 5% CO2 for 48 h. Allo was prepared in cell culture media with the addition of 1% (v/v) ethanol to aid Allo solubility. The final concentration range of Allo treated to the cells was 0.001-10 μM. […] The cell viability was measured using Synergy H1 Multi-Mode Reader (BioTek Instruments Inc., Winooski, Vt.) at the excitation wavelength of 544 nm and emission wavelength of 590 nm.

[3] = test system: TR 146 (human buccal) cell line; test: In vitro cell viability (resazurin assay) after treatment of Allo, TR 146; format: cell-based; details: TR 146, Allo 0.001-10 μM, 72 h
Procedure: as §1

[4] = test system: RPMI 2650 (human nasal) cell line; test: In vitro cell viability (resazurin assay) after treatment of Allo, RPMI 2650; format: cell-based; details: RPMI 2650, Allo 0.001-10 μM, 72 h
Procedure: as §1

[5] = Saturated solubility of Allo in receptor media; format: physicochemical; details: aqueous with cosolvent or surfactant or cyclodextrin, thermodynamic from solid, 32° C., n=3, read-out: Solubility of Allo in receptor medium
Procedure: To select a receptor medium placed in the receptor compartment of the Franz chamber, the saturated solubilities of Allo in various media were determined. PBS at pH 7.4 has been commonly used to mimic the physiological condition. […] An excessive amount of Allo was added to 1 ml of the following media: (1) 10% (w/v) 2-hydroxypropyl-β-cyclodextrin (HβCD), (2) 40% (v/v) isopropyl alcohol (IPA), (3) 30% (v/v) CREMOPHOR EL®, and (4) 20% (v/v) IPA and 25% (v/v) CREMOPHOR EL®. The solutions were kept under constant magnetic stirring at 600 rpm for 24 h and placed in an incubator at 32° C. After 24 h, the excessive amount of Allo was filtered through a 0.2 μm syringe membrane and the filtered solution was injected into the HPLC for analysis.

SMILES: CC(=O)[C@H]1CC[C@H]2[C@@H]3CC[C@H]4C[C@H](O)CC[C@]4(C)[C@H]3CC[C@]12C [Allo, 3α-hydroxy-5α-pregnan-20-one]
- solubility at 72 h ([1]; in CAPMUL® MCM): 28400 ± 1920 µg/mL (≈ 89 mM)
- solubility at 72 h ([1]; in isopropyl myristate): 8880 ± 170 µg/mL (≈ 27.9 mM)
- solubility at 72 h ([1]; in oleic acid): 17800 ± 3970 µg/mL (≈ 55.9 mM)
- Viability percent range ([2]; HaCaT, Allo 0.001-10 μM): 84.16-102.70%
- Viability compared to the control group ([2]; stated for the tested cell lines (HaCaT, TR 146, RPMI 2650), control without Allo): No significant decrease in viability
- Viability percent range [3]: 93.89-112.44%
- Viability percent range [4]: 107.32-113.60%
- solubility at 24 h ([5]; PBS (pH 7.4) containing 10% (w/v) HβCD): 3450 ± 30 µg/mL (≈ 10.8 mM)
- solubility at 24 h ([5]; PBS (pH 7.4) containing 20% (v/v) IPA and 25% (v/v) CREMOPHOR EL®): 3350 ± 120 µg/mL (≈ 10.5 mM)
- solubility at 24 h ([5]; PBS (pH 7.4) containing 30% (v/v) CREMOPHOR EL®): 1990 ± 170 µg/mL (≈ 6.25 mM)
- solubility at 24 h ([5]; PBS (pH 7.4) containing 40% (v/v) IPA): 1130 ± 130 µg/mL (≈ 3.55 mM)
